Measurements published in ChEMBL document CHEMBL1201862, “PubChem BioAssay data set” (2004).
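1) Cells in 96-well plates. 2) Compound, 48 h, 5 concentrations. 3) Linear interpolation between surrounding doses. 4) Unreached endpoint = highest concentration. At the GI50, growth is halved.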 The source made the active and inactive calls. Cut-off read from the data, not from the text of the source: active = GI50 up to about 1.1 µM and inactive = higher.

Tests used:
Experiment in all cases: DTP human tumour cell line panel, 48 h
A498 = test system: A498
SF-539 = test system: SF-539
786-0 = test system: 786-0
NCI-H522 = test system: NCI-H522
UACC-62 = test system: UACC-62
NCI-H460 = test system: NCI-H460
TK-10 = test system: TK-10
NCI-H23 = test system: NCI-H23
CCRF-CEM = test system: CCRF-CEM
NCI/ADR-RES = test system: NCI/ADR-RES
MOLT-4 = test system: MOLT-4
RXF 393 = test system: RXF 393
KM12 = test system: KM12
IGROV-1 = test system: IGROV-1
BT-549 = test system: BT-549
SK-MEL-5 = test system: SK-MEL-5
OVCAR-5 = test system: OVCAR-5
SN12C = test system: SN12C
SK-OV-3 = test system: SK-OV-3
HOP-92 = test system: HOP-92
UACC-257 = test system: UACC-257
OVCAR-8 = test system: OVCAR-8
CAKI-1 = test system: CAKI-1
K562 = test system: K562
SK-MEL-28 = test system: SK-MEL-28
SK-MEL-2 = test system: SK-MEL-2
MDA-N = test system: MDA-N
T47D = test system: T47D
Hs-578T = test system: Hs-578T
SR = test system: SR
MCF7 = test system: MCF7
HCT-15 = test system: HCT-15
HL-60 = test system: HL-60
EKVX = test system: EKVX
HT-29 = test system: HT-29
SF-295 = test system: SF-295
PC-3 = test system: PC-3
ACHN = test system: ACHN
OVCAR-4 = test system: OVCAR-4
COLO 205 = test system: COLO 205
SF-268 = test system: SF-268
Malme-3M = test system: Malme-3M
MDA-MB-435 = test system: MDA-MB-435
M14 = test system: M14
RPMI-8226 = test system: RPMI-8226
DU-145 = test system: DU-145
HOP-62 = test system: HOP-62
SNB-19 = test system: SNB-19
A549 = test system: A549
UO-31 = test system: UO-31
OVCAR-3 = test system: OVCAR-3
HCT-116 = test system: HCT-116
MDA-MB-231 = test system: MDA-MB-231
U-251 = test system: U-251
NCI-H226 = test system: NCI-H226
HCC 2998 = test system: HCC 2998
SW-620 = test system: SW-620
LOX IMVI = test system: LOX IMVI
SNB-75 = test system: SNB-75

Measured: GI50

COc1ccc2cc(-c3nc(N)nc(N4N=C(C)CC4(C)C)n3)c(=N)oc2c1
inactive: A498 32.3 µM | SF-539 16 µM | 786-0 17.9 µM | NCI-H522 13.5 µM | UACC-62 17.6 µM | NCI-H460 17.4 µM | TK-10 32.6 µM | NCI-H23 16.5 µM | CCRF-CEM 16.1 µM | NCI/ADR-RES 31.4 µM | MOLT-4 11.7 µM | RXF 393 23.4 µM | KM12 15.9 µM | IGROV-1 14.8 µM | BT-549 18.6 µM | SK-MEL-5 16.2 µM | OVCAR-5 18.7 µM | SN12C 20.2 µM | SK-OV-3 23.6 µM | HOP-92 19.7 µM | UACC-257 28.9 µM | OVCAR-8 23 µM | CAKI-1 17.5 µM | K562 16.4 µM | SK-MEL-28 16.9 µM | SK-MEL-2 17.5 µM | MDA-N 17.1 µM | T47D 15.4 µM | Hs-578T 23.2 µM | SR 13.9 µM | MCF7 16.7 µM | HL-60 19.9 µM | EKVX 26.2 µM | HT-29 17.6 µM | SF-295 18.3 µM | PC-3 16.8 µM | ACHN 16.3 µM | OVCAR-4 18 µM | COLO 205 16.6 µM | SF-268 16.9 µM | Malme-3M 16.5 µM | MDA-MB-435 18.5 µM | M14 21.5 µM | RPMI-8226 16 µM | DU-145 15.8 µM | HOP-62 22.2 µM | SNB-19 19.3 µM | A549 24.9 µM | UO-31 21.5 µM | OVCAR-3 15.2 µM | HCT-116 19.1 µM | MDA-MB-231 18.8 µM | U-251 18.8 µM | NCI-H226 15.3 µM | HCC 2998 17.9 µM
14.8 µM: HCT-15

CC(C)=CCNc1ncnc2c1ncn2CCC(=O)O
inactive: A498 > 100 µM | SF-539 > 100 µM | 786-0 > 100 µM | NCI-H522 > 100 µM | UACC-62 > 100 µM | NCI-H460 > 100 µM | TK-10 > 100 µM | NCI-H23 > 100 µM | CCRF-CEM > 100 µM | NCI/ADR-RES > 100 µM | MOLT-4 > 100 µM | RXF 393 > 100 µM | KM12 > 100 µM | IGROV-1 > 100 µM | SW-620 > 100 µM | BT-549 > 100 µM | SK-MEL-5 > 100 µM | OVCAR-5 > 100 µM | SN12C > 100 µM | SK-OV-3 > 100 µM | HOP-92 > 100 µM | LOX IMVI > 100 µM | OVCAR-8 > 100 µM | K562 > 100 µM | SK-MEL-28 > 100 µM | SNB-75 > 100 µM | MDA-N > 100 µM | T47D > 100 µM | Hs-578T > 100 µM | SR > 100 µM | MCF7 > 100 µM | HL-60 > 100 µM | HT-29 > 100 µM | SF-295 > 100 µM | PC-3 > 100 µM | ACHN > 100 µM | OVCAR-4 > 100 µM | COLO 205 > 100 µM | SF-268 > 100 µM | Malme-3M > 100 µM | MDA-MB-435 > 100 µM | M14 > 100 µM | RPMI-8226 > 100 µM | DU-145 > 100 µM | HOP-62 > 100 µM | SNB-19 > 100 µM | A549 > 100 µM | UO-31 > 100 µM | OVCAR-3 > 100 µM | HCT-116 > 100 µM | MDA-MB-231 > 100 µM | U-251 > 100 µM | NCI-H226 > 100 µM | HCC 2998 > 100 µM
> 100 µM: HCT-15

CC(C)CC(N)C(=O)NC(C(=O)NC(CCCNC(=N)N)C(=O)NC(CS)C(=O)NC1CSCC(C(=O)NC(Cc2ccccc2)C(=O)NC(C(=O)NC(CCCNC(=N)N)C(=O)O)C(C)C)NC(=O)C2CCCN2C(=O)C(CCCCN)NC(=O)C2CCCN2C(=O)C2CCCN2C(=O)C(Cc2ccc(O)cc2)NC(=O)C(CO)NC(=O)C(CCCCN)NC(=O)C(C(C)O)NC(=O)C(Cc2c[nH]c3ccccc23)NC1=O)C(C)C (stereo unspecified)
inactive: A498 > 25 µM | SF-539 > 25 µM | 786-0 > 25 µM | NCI-H522 > 25 µM | UACC-62 > 25 µM | TK-10 > 25 µM | NCI-H23 > 25 µM | CCRF-CEM > 25 µM | NCI/ADR-RES > 25 µM | MOLT-4 > 25 µM | KM12 > 25 µM | IGROV-1 > 25 µM | SW-620 > 25 µM | BT-549 > 25 µM | SK-MEL-5 > 25 µM | OVCAR-5 > 25 µM | SN12C > 25 µM | SK-OV-3 > 25 µM | HOP-92 > 25 µM | LOX IMVI > 25 µM | UACC-257 > 25 µM | OVCAR-8 > 25 µM | CAKI-1 > 25 µM | K562 > 25 µM | SK-MEL-28 > 25 µM | SK-MEL-2 > 25 µM | MDA-N > 25 µM | T47D > 25 µM | Hs-578T > 25 µM | SR > 25 µM | MCF7 > 25 µM | HL-60 > 25 µM | EKVX > 25 µM | HT-29 > 25 µM | SF-295 > 25 µM | PC-3 > 25 µM | ACHN > 25 µM | OVCAR-4 > 25 µM | COLO 205 > 25 µM | SF-268 > 25 µM | Malme-3M > 25 µM | MDA-MB-435 > 25 µM | M14 > 25 µM | RPMI-8226 > 25 µM | DU-145 > 25 µM | HOP-62 > 25 µM | SNB-19 > 25 µM | A549 > 25 µM | UO-31 > 25 µM | OVCAR-3 > 25 µM | HCT-116 > 25 µM | MDA-MB-231 > 25 µM | U-251 > 25 µM | NCI-H226 > 25 µM
> 25 µM: HCT-15
